Results reported in paper PMC11945486, “TAS1R2/TAS1R3 Single-Nucleotide Polymorphisms Affect Sweet Taste Receptor Activation by Sweeteners: The SWEET Project” (Nutrients, 2025).
Read-outs that look alike come from different tables or passages of the source. Values belong to the molecule of their own block, whether it stands above or below them. No end group written: not given here.

Target: T1, human TAS1R2-WT/TAS1R3-S446N (Homo sapiens, UniProt Q7RTX0+Q8TE23, S446N)
T1 construct: expressed in transfected cells; host or cells: HEK293T stably expressing Gα16gust44
T1 sequence (Q8TE23 20-839): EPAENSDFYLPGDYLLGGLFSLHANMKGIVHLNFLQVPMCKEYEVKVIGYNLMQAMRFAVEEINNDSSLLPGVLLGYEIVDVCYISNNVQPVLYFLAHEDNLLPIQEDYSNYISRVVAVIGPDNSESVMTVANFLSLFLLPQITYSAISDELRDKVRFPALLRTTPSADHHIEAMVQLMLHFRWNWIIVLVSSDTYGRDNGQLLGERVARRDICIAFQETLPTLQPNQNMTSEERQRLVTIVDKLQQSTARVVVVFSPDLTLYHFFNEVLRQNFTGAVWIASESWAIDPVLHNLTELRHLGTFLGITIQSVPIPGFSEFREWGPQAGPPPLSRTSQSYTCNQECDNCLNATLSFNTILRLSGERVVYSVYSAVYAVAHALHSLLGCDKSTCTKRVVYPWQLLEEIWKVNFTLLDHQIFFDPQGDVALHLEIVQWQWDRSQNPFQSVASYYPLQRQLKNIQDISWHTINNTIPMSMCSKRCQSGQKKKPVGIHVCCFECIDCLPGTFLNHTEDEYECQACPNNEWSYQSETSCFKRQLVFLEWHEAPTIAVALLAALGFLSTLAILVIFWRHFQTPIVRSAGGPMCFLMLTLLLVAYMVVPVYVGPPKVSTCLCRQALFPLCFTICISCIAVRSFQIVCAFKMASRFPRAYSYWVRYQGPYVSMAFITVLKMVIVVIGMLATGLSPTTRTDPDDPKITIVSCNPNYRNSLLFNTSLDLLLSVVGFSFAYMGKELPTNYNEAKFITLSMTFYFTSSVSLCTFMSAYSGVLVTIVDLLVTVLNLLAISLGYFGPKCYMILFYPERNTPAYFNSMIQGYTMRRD
T1 sequence (Q7RTX0 21-852 S446N): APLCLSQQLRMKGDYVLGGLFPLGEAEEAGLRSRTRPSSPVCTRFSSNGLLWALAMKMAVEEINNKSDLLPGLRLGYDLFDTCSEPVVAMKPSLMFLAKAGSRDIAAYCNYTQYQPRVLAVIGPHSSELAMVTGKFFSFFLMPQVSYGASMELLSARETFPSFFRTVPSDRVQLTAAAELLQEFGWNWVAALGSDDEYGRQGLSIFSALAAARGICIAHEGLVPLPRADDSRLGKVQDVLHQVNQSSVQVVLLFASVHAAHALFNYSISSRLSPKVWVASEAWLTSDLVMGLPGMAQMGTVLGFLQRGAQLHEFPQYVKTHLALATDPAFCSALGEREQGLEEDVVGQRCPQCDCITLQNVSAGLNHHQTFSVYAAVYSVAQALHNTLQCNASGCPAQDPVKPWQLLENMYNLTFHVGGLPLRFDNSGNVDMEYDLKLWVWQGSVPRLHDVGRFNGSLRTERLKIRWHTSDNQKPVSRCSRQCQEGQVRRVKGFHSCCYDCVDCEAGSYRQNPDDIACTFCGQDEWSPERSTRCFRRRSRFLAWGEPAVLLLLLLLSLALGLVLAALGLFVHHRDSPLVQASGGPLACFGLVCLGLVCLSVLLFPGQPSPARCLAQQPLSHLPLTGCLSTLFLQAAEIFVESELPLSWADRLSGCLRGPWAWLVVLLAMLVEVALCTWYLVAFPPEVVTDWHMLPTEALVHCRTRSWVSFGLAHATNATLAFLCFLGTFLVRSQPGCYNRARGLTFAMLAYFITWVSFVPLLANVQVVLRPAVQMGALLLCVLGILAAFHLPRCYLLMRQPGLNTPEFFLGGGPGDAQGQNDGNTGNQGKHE
Test: Calcium mobilisation assay, TAS1R2-WT with TAS1R3 variant S446N
Assay type: cell-based
Settings: for Max ΔF/F0: maximal signal amplitude
Description: The coding sequences for TAS1R2 and TAS1R3 were commercially synthesised, and the human codon was optimised for expression in human cells. The coding sequences of human TAS1R2 and TAS1R3 were subcloned and inserted into the mammalian expression vectors pcDNA6/myc-HisA and pcDNA4/myc-HisA (Invitrogen; Thermo Fisher Scientific; Illkirch, France) between the EcoRI and NotI restriction sites, generating the plasmids pcDNA6-TAS1R2 and pcDNA4-TAS1R3, respectively. To increase protein expression in mammalian cells, an upstream start codon was used, which was a sequence called MAX, corresponding to the QBI SP163 element also described in pcDNA4-HisMax (Invitrogen; Thermo Fisher Scientific; Illkirch, France). To measure the expression level of the receptor by immunohistochemistry, we used the FLAG sequence ([…]) in the C-terminal position, which encodes the FLAG tag epitope. SNP variants of TAS1R2 and TAS1R3 were constructed based on […], respectively, using site-directed mutagenesis (Genewiz; Leipzig, Germany).
The HEK293T cells were kindly provided by Jay P. Slack (Givaudan Flavors Corporation; Cincinnati, OH, USA). HEK293T cells stably transfected with Gα16gust44 [43, 67] were seeded in poly-D-lysine-coated clear-bottom black 96-well plates (0.35 × 10^5 cells/well) in high-glucose DMEM supplemented with 2 mM GlutaMAX, 10% dialysed foetal bovine serum with penicillin/streptomycin and G418 (400 μg/mL) at 37 °C and 6.3% CO2 in a humidified atmosphere as previously reported. […] As a negative control, HEK293T cells were mock-transfected with the empty expression vector. After a further 24 h of incubation, the HEK293T cells were washed with C1 buffer (130 mM NaCl, 5 mM KCl, 10 mM HEPES pH 7.4 and 2 mM CaCl2). The 96-well plates containing the cells were then stimulated with sweet-tasting compounds. […] Different concentration ranges were tested depending on the sweet compound injected. The Ca^2+ changes were expressed as fractional changes in fluorescent light intensity: ΔF/F = (F − F0)/F0, where F was the fluorescent light intensity at each point, and F0 was the value of emitted fluorescent light prior to stimulus application. To calculate dose–response relationships, the changes in fluorescence upon stimulus application were averaged, mock-subtracted and baseline-corrected. The dose–response data obtained were adjusted using a 4-parameter logistic equation. The half-maximal effective concentrations (EC50 values) and maximal signal amplitudes were calculated using SigmaPlot software (version 15.0) (Systat Software; San Jose, CA, USA).
For in vitro calcium mobilisation assay performed on hTAS1R2-SNPs, hTAS1R3-SNPs and mTAS1R3-I60T, 6 to 7 concentrations were tested for each sweet compound, plus buffer alone. All concentration–receptor combinations were measured in duplicate, and each experiment was repeated at least 4 times (8 wells/concentration). Results were expressed for each concentration as ΔF/F mean ± SEM and represented as dose–response curves.

R1 = Variant EC50/WT EC50: 0.8
Max ΔF/F0: 0.19 ± 0.01
EC50 (read-out: EC50): 487 ± 78 µM
Molecule: CC1=CC(=O)NS(=O)(=O)O1 [Acesulfame K, acesulfame K]

Molecule: O=S(=O)(O)NC1CCCCC1 [Cyclamate, cyclamate]
EC50 (read-out: EC50): 1480 ± 45 µM

Molecule: C[C@H](CC[C@@H](O[C@@H]1O[C@H](CO[C@@H]2O[C@H](CO)[C@@H](O)[C@H](O)[C@H]2O)[C@@H](O)[C@H](O)[C@H]1O[C@@H]1O[C@H](CO)[C@@H](O)[C@H](O)[C@H]1O)C(C)(C)O)[C@H]1CC[C@@]2(C)[C@@H]3CC=C4[C@@H](CC[C@H](O[C@@H]5O[C@H](CO[C@@H]6O[C@H](CO)[C@@H](O)[C@H](O)[C@H]6O)[C@@H](O)[C@H](O)[C@H]5O)C4(C)C)[C@]3(C)[C@H](O)C[C@]12C [Mogroside V, mogroside V]
R1 = Variant EC50/WT EC50: 1.5
Max ΔF/F0: 0.86 ± 0.01
EC50 (read-out: EC50): 47.7 ± 1.5 µM

R1 = Variant EC50/WT EC50: 1.0
Max ΔF/F0: 1.07 ± 0.06
EC50 (read-out: EC50): 49.4 ± 8.6 µM
Molecule: COc1ccc(CCC(=O)c2c(O)cc(O[C@@H]3O[C@H](CO)[C@@H](O)[C@H](O)[C@H]3O[C@@H]3O[C@@H](C)[C@H](O)[C@@H](O)[C@H]3O)cc2O)cc1O [NHDC, neohesperidin dihydrochalcone]

R1 = Variant EC50/WT EC50: 1.0
Max ΔF/F0: 0.63 ± 0.02
EC50 (read-out: EC50): 1.22 ± 0.1 µM
Molecule: COC(=O)[C@H](Cc1ccccc1)NC(=O)[C@H](CC(=O)O)NCCC(C)(C)C [Neotame]

R1 = Variant EC50/WT EC50: 1.1
Max ΔF/F0: 1.42 ± 0.26
EC50 (read-out: EC50): 15.3 ± 8.6 µM
Molecule: C=C(C)[C@@H]1CC=C(/C=N/O)CC1 [Perillartine, perillartine]

R1 = Variant EC50/WT EC50: 0.9
Max ΔF/F0: 0.64 ± 0.03
EC50 (read-out: EC50): 36.9 ± 3.6 µM
Molecule: C=C1C[C@@]23CC[C@H]4[C@@](C)(CCC[C@@]4(C)C(=O)O[C@@H]4O[C@H](CO)[C@@H](O)[C@H](O[C@@H]5O[C@H](CO)[C@@H](O)[C@H](O)[C@H]5O)[C@H]4O[C@@H]4O[C@H](CO)[C@@H](O)[C@H](O)[C@H]4O)[C@@H]2CC[C@]1(O[C@@H]1O[C@H](CO)[C@@H](O)[C@H](O[C@@H]2O[C@H](CO)[C@@H](O)[C@H](O)[C@H]2O)[C@H]1O[C@@H]1O[C@H](CO)[C@@H](O)[C@H](O)[C@H]1O)C3 [Rebaudioside M, rebaudioside M]

R1 = Variant EC50/WT EC50: 1.4
Max ΔF/F0: 0.68 ± 0.02
EC50 (read-out: EC50): 155 ± 11 µM
Molecule: OC[C@H]1O[C@H](O[C@]2(CCl)O[C@H](CCl)[C@@H](O)[C@@H]2O)[C@H](O)[C@@H](O)[C@H]1Cl [Sucralose]

R1 = Variant EC50/WT EC50: 1.1
EC50 (brazzein): 120.8 ± 9.3 µg/mL
Max ΔF/F0: 0.98 ± 0.03
Molecule: brazzein (QDKCKKVYENYPVSKCQLANQCNYDCKLDKHARSGECFYDEKRNLQCICDYCEY; ends and bridges not checked; cysteine pairing not given here; UniProt P56552 1-54, looked up) [sweet-tasting protein obtained by recombinant production using the yeast Pichia pastoris]

R1 = Variant EC50/WT EC50: 0.9
Max ΔF/F0: 0.70 ± 0.04
Molecule: thaumatin

EC50 (read-out: EC50): 9.8 ± 1.1 µM
B1: thaumatin (protein)
chain: ATFEIVNRCSYTVWAAASKGDAALDAGGRQLNSGESWTINVEPGTKGGKIWARTDCYFDDSGSGICKTGDCGGLLRCKRFGRPPTTLAEFSLNQYGKDYIDISNIKGFNVPMDFSPTTRGCRGVRCAADIVGQCPAKLKAPGGGCNDACTVFQTSEYCCTTGKCGPTEYSRFFKRLCPDAFSYVLDKPTTVTCPGSSNYRVTFCPTA
modifications: Eight disulfides
notes: sweet-tasting plant protein, E957
